# Test results from patent US8952024B2, “Herbicidal pyrimidone derivatives” (E I du Pont de Nemours and Company, priority 2009, dated 2015).
# Tests used:
# Assay in all cases: Test C plant response
# Assay type in all cases: in vivo
# [1] = tested on: windgrass (Apera spica-venti); conditions: Preemergence, scale 0 to 100
# [2] = tested on: Russian thistle (Salsola iberica); conditions: Postemergence, scale 0 to 100
# Excerpt: (§1) Seeds of plant species selected from bluegrass (annual bluegrass, Poa annua), blackgrass (Alopecurus myosuroides), canarygrass (Phalaris minor), chickweed (common chickweed, Stellaria media), galium (catchweed bedstraw, Galium aparine), bromegrass (downy bromegrass, Bromus tectorum), field poppy (Papaver rhoeas), field violet (Viola arvensis), green foxtail (Setaria viridis), deadnettle (henbit deadnettle, Lamium amplexicaule), Italian ryegrass (Lolium multiflorum), kochia (Kochia scoparia), lambsquarters (Chenopodium album), oilseed rape (Brassica napus), pigweed (Amaranthus retroflexus), Russian thistle (Salsola iberica), spring barley (Hordeum vulgare), spring wheat (Triticum aestivum), buckwheat (wild buckwheat, Polygonum convolvulus), wild mustard (Sinapis arvensis), wild oat (Avena fatua), wild radish (Raphanus raphanistrum), windgrass (Apera spica-venti), winter barley (Hordeum vulgare), and winter wheat (Triticum aestivum) were planted and treated postemergence with test chemicals formulated in a non-phytotoxic solvent mixture which included a surfactant. Plants ranged in height from 2 to 18 cm (1- to 4-leaf stage).
# (§2) Treated plants and controls were maintained in a controlled growth environment for 14 days after which time all test plants were visually evaluated and compared to controls. Plant response ratings, summarized in Table C, are based on a scale of 0 to 100 where 0 is no effect and 100 is complete control. A dash (-) response means no test result.
# [3] = tested on: wild mustard (Sinapis arvensis); conditions: Postemergence, scale 0 to 100
# Excerpt: as §1, §2
# [4] = tested on: pigweed (Amaranthus retroflexus); conditions: Postemergence, scale 0 to 100
# Excerpt: as §1, §2
# [5] = tested on: field violet (Viola arvensis); conditions: Postemergence, scale 0 to 100
# Excerpt: as §1, §2
# [6] = tested on: wild oat (Avena fatua); conditions: Postemergence, scale 0 to 100
# Excerpt: as §1, §2
# [7] = tested on: windgrass (Apera spica-venti); conditions: Postemergence, scale 0 to 100
# Excerpt: as §1, §2
# [8] = tested on: winter wheat (Triticum aestivum); conditions: Postemergence, scale 0 to 100
# Excerpt: as §1, §2
# [9] = tested on: spring wheat (Triticum aestivum); conditions: Postemergence, scale 0 to 100
# Excerpt: as §1, §2
# [10] = tested on: winter barley (Hordeum vulgare); conditions: Postemergence, scale 0 to 100
# Excerpt: as §1, §2
# [11] = tested on: buckwheat (wild buckwheat, Polygonum convolvulus); conditions: Postemergence, scale 0 to 100
# Excerpt: as §1, §2
# [12] = tested on: oilseed rape (Brassica napus); conditions: Postemergence, scale 0 to 100
# Excerpt: as §1, §2
# [13] = tested on: deadnettle (henbit deadnettle, Lamium amplexicaule); conditions: Postemergence, scale 0 to 100
# Excerpt: as §1, §2
# [14] = tested on: galium (catchweed bedstraw, Galium aparine); conditions: Postemergence, scale 0 to 100
# Excerpt: as §1, §2
# [15] = tested on: bromegrass (downy bromegrass, Bromus tectorum); conditions: Postemergence, scale 0 to 100
# Excerpt: as §1, §2
# [16] = tested on: lambsquarters (Chenopodium album); conditions: Postemergence, scale 0 to 100
# Excerpt: as §1, §2
# [17] = tested on: spring barley (Hordeum vulgare); conditions: Postemergence, scale 0 to 100
# Excerpt: as §1, §2
# [18] = tested on: blackgrass (Alopecurus myosuroides); conditions: Postemergence, scale 0 to 100
# Excerpt: as §1, §2
# [19] = tested on: green foxtail (Setaria viridis); conditions: Postemergence, scale 0 to 100
# Excerpt: as §1, §2
# [20] = tested on: wild radish (Raphanus raphanistrum); conditions: Postemergence, scale 0 to 100
# Excerpt: as §1, §2
# [21] = tested on: kochia (Kochia scoparia); conditions: Postemergence, scale 0 to 100
# Excerpt: as §1, §2
# [22] = tested on: Italian ryegrass (Lolium multiflorum); conditions: Postemergence, scale 0 to 100
# Excerpt: as §1, §2
# [23] = tested on: bluegrass (annual bluegrass, Poa annua); conditions: Postemergence, scale 0 to 100
# Excerpt: as §1, §2
structure (smiles),measurement,setting,value
"O=C1CCCC(O)=C1C(=O)c1cnc(-c2ccccc2)n(-c2ccccc2)c1=O [Compound 2, 5-[(2-hydroxy-6-oxo-1-cyclohexen-1-yl)carbonyl]-2,3-diphenyl-4(3H)-pyrimidinone]",Plant response rating: Windgrass,[1]; 62 g ai/ha,25
same,Plant response rating: Windgrass,[1]; 125 g ai/ha,25
same,Plant response rating: Windgrass,[1]; 16 g ai/ha,0
same,Plant response rating: Windgrass,[1]; 31 g ai/ha,15
same,Plant response rating: Russian Thistle,[2]; 16 g ai/ha,35
same,Plant response rating: Russian Thistle,[2]; 31 g ai/ha,60
same,Plant response rating: Russian Thistle,[2]; 62 g ai/ha,70
same,Plant response rating: Russian Thistle,[2]; 125 g ai/ha,95
same,"Plant response rating: Mustard, Wild",[3]; 16 g ai/ha,98
same,"Plant response rating: Mustard, Wild",[3]; 31 g ai/ha,98
same,"Plant response rating: Mustard, Wild",[3]; 62 g ai/ha,98
same,Plant response rating: Pigweed,[4]; 16 g ai/ha,35
same,Plant response rating: Pigweed,[4]; 31 g ai/ha,40
same,Plant response rating: Pigweed,[4]; 62 g ai/ha,75
same,Plant response rating: Pigweed,[4]; 125 g ai/ha,90
same,Plant response rating: Field Violet,[5]; 16 g ai/ha,0
same,Plant response rating: Field Violet,[5]; 31 g ai/ha,40
same,Plant response rating: Field Violet,[5]; 62 g ai/ha,40
same,Plant response rating: Field Violet,[5]; 125 g ai/ha,50
same,"Plant response rating: Oat, Wild",[6]; 16 g ai/ha,0
same,"Plant response rating: Oat, Wild",[6]; 31 g ai/ha,15
same,"Plant response rating: Oat, Wild",[6]; 62 g ai/ha,25
same,"Plant response rating: Oat, Wild",[6]; 125 g ai/ha,25
same,Plant response rating: Windgrass,[7]; 16 g ai/ha,5
same,Plant response rating: Windgrass,[7]; 31 g ai/ha,20
same,Plant response rating: Windgrass,[7]; 62 g ai/ha,25
same,Plant response rating: Windgrass,[7]; 125 g ai/ha,40
same,"Plant response rating: Wheat, Winter",[8]; 16 g ai/ha,0
same,"Plant response rating: Wheat, Winter",[8]; 31 g ai/ha,0
same,"Plant response rating: Wheat, Winter",[8]; 62 g ai/ha,0
same,"Plant response rating: Wheat, Winter",[8]; 125 g ai/ha,30
same,"Plant response rating: Wheat, Spring",[9]; 16 g ai/ha,0
same,"Plant response rating: Wheat, Spring",[9]; 31 g ai/ha,0
same,"Plant response rating: Wheat, Spring",[9]; 62 g ai/ha,0
same,"Plant response rating: Wheat, Spring",[9]; 125 g ai/ha,0
same,"Plant response rating: Barley, Winter",[10]; 16 g ai/ha,0
same,"Plant response rating: Barley, Winter",[10]; 31 g ai/ha,0
same,"Plant response rating: Barley, Winter",[10]; 62 g ai/ha,10
same,"Plant response rating: Barley, Winter",[10]; 125 g ai/ha,30
same,"Plant response rating: Buckwheat, Wild",[11]; 16 g ai/ha,15
same,"Plant response rating: Buckwheat, Wild",[11]; 31 g ai/ha,20
same,"Plant response rating: Buckwheat, Wild",[11]; 62 g ai/ha,40
same,"Plant response rating: Buckwheat, Wild",[11]; 125 g ai/ha,70
same,Plant response rating: Oilseed Rape,[12]; 16 g ai/ha,60
same,Plant response rating: Oilseed Rape,[12]; 31 g ai/ha,60
same,Plant response rating: Oilseed Rape,[12]; 62 g ai/ha,70
same,Plant response rating: Oilseed Rape,[12]; 125 g ai/ha,90
same,Plant response rating: Deadnettle,[13]; 16 g ai/ha,95
same,Plant response rating: Deadnettle,[13]; 31 g ai/ha,95
same,Plant response rating: Deadnettle,[13]; 62 g ai/ha,100
same,Plant response rating: Deadnettle,[13]; 125 g ai/ha,100
same,Plant response rating: Galium,[14]; 16 g ai/ha,5
same,Plant response rating: Galium,[14]; 31 g ai/ha,30
same,Plant response rating: Galium,[14]; 62 g ai/ha,50
same,Plant response rating: Galium,[14]; 125 g ai/ha,70
same,"Plant response rating: Bromegrass, Downy",[15]; 16 g ai/ha,10
same,"Plant response rating: Bromegrass, Downy",[15]; 31 g ai/ha,20
same,"Plant response rating: Bromegrass, Downy",[15]; 62 g ai/ha,30
same,"Plant response rating: Bromegrass, Downy",[15]; 125 g ai/ha,50
same,Plant response rating: Lambsquarters,[16]; 16 g ai/ha,70
same,Plant response rating: Lambsquarters,[16]; 31 g ai/ha,75
same,Plant response rating: Lambsquarters,[16]; 62 g ai/ha,80
same,Plant response rating: Lambsquarters,[16]; 125 g ai/ha,98
same,"Plant response rating: Barley, Spring",[17]; 16 g ai/ha,0
same,"Plant response rating: Barley, Spring",[17]; 31 g ai/ha,0
same,"Plant response rating: Barley, Spring",[17]; 62 g ai/ha,0
same,"Plant response rating: Barley, Spring",[17]; 125 g ai/ha,0
same,Plant response rating: Blackgrass,[18]; 16 g ai/ha,0
same,Plant response rating: Blackgrass,[18]; 31 g ai/ha,0
same,Plant response rating: Blackgrass,[18]; 62 g ai/ha,20
same,Plant response rating: Blackgrass,[18]; 125 g ai/ha,30
same,"Plant response rating: Foxtail, Green",[19]; 16 g ai/ha,65
same,"Plant response rating: Foxtail, Green",[19]; 31 g ai/ha,75
same,"Plant response rating: Foxtail, Green",[19]; 62 g ai/ha,95
same,"Plant response rating: Foxtail, Green",[19]; 125 g ai/ha,95
same,"Plant response rating: Radish, Wild",[20]; 16 g ai/ha,65
same,"Plant response rating: Radish, Wild",[20]; 31 g ai/ha,80
same,"Plant response rating: Radish, Wild",[20]; 62 g ai/ha,95
same,"Plant response rating: Radish, Wild",[20]; 125 g ai/ha,95
same,Plant response rating: Kochia,[21]; 16 g ai/ha,65
same,Plant response rating: Kochia,[21]; 31 g ai/ha,70
same,Plant response rating: Kochia,[21]; 62 g ai/ha,75
same,Plant response rating: Kochia,[21]; 125 g ai/ha,98
same,"Plant response rating: Ryegrass, Italian",[22]; 16 g ai/ha,0
same,"Plant response rating: Ryegrass, Italian",[22]; 31 g ai/ha,0
same,"Plant response rating: Ryegrass, Italian",[22]; 62 g ai/ha,15
same,"Plant response rating: Ryegrass, Italian",[22]; 125 g ai/ha,30
same,Plant response rating: Bluegrass,[23]; 16 g ai/ha,0
same,Plant response rating: Bluegrass,[23]; 31 g ai/ha,25
same,Plant response rating: Bluegrass,[23]; 62 g ai/ha,25
same,Plant response rating: Bluegrass,[23]; 125 g ai/ha,65
